Reference: patent publication US7678913B2, “Ureas as factor Xa inhibitors” (Portola Pharmaceuticals, Inc., priority 2004, dated 2010)

Target: T1, human plasma protein factor Xa (Homo sapiens, UniProt P00742)
T1 construct: measure proteolytic activity of the enzyme (factor Xa); purchased Haematologic Technologies (Essex Junction, Vt.); host or cells: human plasma
Experiment: Factor Xa IC50 determination (cleavage of chromogenic substrate S-2765)
Type: biochemical
Settings: fXa 1 nM, S-2765 100 μM, Tris buffered saline pH 7.4, room temperature
Description: This example illustrates methods for evaluating the compounds of the invention, along with results obtained for such assays. The in vitro and in vivo Factor Xa isoform activities of the inventive compounds can be determined by various procedures known in the art, such as a test for their ability to inhibit the activity of the Factor Xa isoform. […] The IC50 value is the concentration (in nM) of the compound required to provide 50% inhibition of Factor Xa isoform.
An in vitro assay for detecting and measuring inhibition activity against Factor Xa is as follows:
• The substrate S-2765 (Z-D-Arg-Gly-Arg-pNA.HCl) was obtained from Diapharma (West Chester, Ohio). Enzyme: • The human plasma protein factor Xa was purchased from Haematologic Technologies (Essex Junction, Vt.). Methods
All assays, which are performed in 96-well microtiter plates, measure proteolytic activity of the enzyme (factor Xa) by following cleavage of paranitroanilide substrate. The assay buffer used for proteolytic assays was Tris buffered saline (20 mM Tris, 150 mM NaCl, 5 mM CaCl2, 0.1% Bovine serum albumin (BSA), 5% Dimethly Sulfoxide (DMSO) pH 7.4). In a 96-well microtiter plate, inhibitor was serially diluted to give a range of concentrations from 0.01 nM to 10 μM (final). Duplicate sets of wells were assayed and control wells without inhibitor were included. Enzyme was added to each well,(fXa concentration=1nM), the plate was shaken for 5 seconds and then incubated for 5 minutes at room temperature. S2765 was added (100 μM final) and the plate was shaken for 5 seconds (final liquid volume in each well was 200 μl). The degree of substrate hydrolysis was measured at 405 nm on a Thermomax plate reader (Molecular Devices, Sunnyvale, Calif.) for 2 minutes. The initial velocities (mOD/min), for each range of inhibitor concentrations, were fitted to a four parameter equation using Softmax data analysis software. The parameter C, derived from the resulting curve-fit, corresponded to the concentration for half maximal inhibition (IC50).

T1 sequence (P00742 235-488 limits assumed): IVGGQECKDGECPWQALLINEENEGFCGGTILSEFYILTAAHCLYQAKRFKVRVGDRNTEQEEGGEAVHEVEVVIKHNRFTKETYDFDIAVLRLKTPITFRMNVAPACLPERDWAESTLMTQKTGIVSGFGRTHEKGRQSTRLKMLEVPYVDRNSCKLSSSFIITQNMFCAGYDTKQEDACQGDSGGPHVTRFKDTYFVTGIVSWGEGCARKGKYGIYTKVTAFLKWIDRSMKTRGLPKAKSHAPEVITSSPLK
T1 sequence (P00742 41-179 partner limits assumed): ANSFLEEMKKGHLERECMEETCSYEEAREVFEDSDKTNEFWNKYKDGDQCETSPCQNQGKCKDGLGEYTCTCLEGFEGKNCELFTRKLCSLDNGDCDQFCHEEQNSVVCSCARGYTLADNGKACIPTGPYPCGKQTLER

Row | IC50 | SMILES
1 | 0.1 to 0.5 µM | O=C(Nc1ccc(Cl)cc1)NC(C(=O)Nc1ccc(-c2ccncc2)cc1)c1ccccc1F (stereo not shown) [Example 49, N-[4-(pyridin-4-yl)phenyl]-2-(2-fluorophenyl)-2-(4-chlorophenylaminocarbonylamino)-acetamide]
2 | 0.1 to 0.5 µM | O=C(Nc1ccc(Cl)cc1)NC(C(=O)Nc1ccc(-c2cc[n+]([O-])cc2)cc1)c1ccccc1F (stereo not shown) [Example 50, N-[4-(N-oxo-pyridin-4-yl)phenyl]-2-(2-fluorophenyl)-2-(4-chlorophenylaminocarbonylamino)-acetamide]
3 | ≤ 0.1 µM | O=C(Nc1ccc(Cl)cc1)NC(C(=O)Nc1ccc(-c2cccc[n+]2[O-])cc1)c1ccccc1F (stereo not shown) [Example 51, N-[4-(N-oxo-pyridin-2-yl)phenyl]-2-(2-fluorophenyl)-2-(4-chlorophenylaminocarbonylamino)-acetamide]
4 | ≤ 0.1 µM | O=C(Nc1ccc(Br)cc1)NC(C(=O)Nc1ccc(-c2cccc[n+]2[O-])cc1)c1ccccc1F (stereo not shown) [Example 52, N-[4-(N-oxo-pyridin-2-yl)phenyl]-2-(2-fluorophenyl)-2-(4-bromophenylaminocarbonylamino)-acetamide]
5 | ≥ 0.5 µM | O=C(Nc1ccc(Cl)cc1)NC(C(=O)NCC1CCNCC1)c1ccccc1F (stereo not shown) [Example 53, N-(piperidin-4-ylmethyl)-2-(2-fluorophenyl)-2-(4-chlorophenylaminocarbonylamino)-acetamide]
6 | 0.1 to 0.5 µM | CC(=N)N1CCC(CNC(=O)C(NC(=O)Nc2ccc(Cl)cc2)c2ccccc2F)CC1 (stereo not shown) [Example 54, N-[(N-acetimidyl-piperidin-4-yl)methyl]-2-(2-fluorophenyl)-2-(4-chlorophenylaminocarbonylamino)-acetamide]
7 | ≤ 0.1 µM | CN(C)Cc1ccccc1-c1ccc(NC(=O)C(NC(=O)Nc2ccc(Cl)cc2)c2ccccc2F)cc1 (stereo not shown) [Example 55, N-[4-(2-dimethylaminomethyl-phenyl)phenyl]-2-(2-fluorophenyl)-2-(4-chlorophenylaminocarbonylamino)-acetamide]
8 | ≤ 0.1 µM | CN(C)Cc1ccccc1-c1ccc(NC(=O)C(NC(=O)Nc2ccc(Cl)cc2)c2ccccc2F)c(F)c1 (stereo not shown) [Example 56, N-[4-(2-dimethylaminomethyl-phenyl)-2-fluorophenyl]-2-(2-fluorophenyl)-2-(4-chlorophenylaminocarbonylamino)-acetamide]
9 | ≤ 0.1 µM | CN(C)Cc1ccccc1-c1ccc(NC(=O)C(NC(=O)Nc2ccc(Br)cc2)c2ccccc2F)c(F)c1 (stereo not shown) [Example 57, N-[4-(2-dimethylaminomethyl-phenyl)-2-fluorophenyl]-2-(2-fluorophenyl)-2-(4-bromophenylaminocarbonylamino)-acetamide]
10 | ≤ 0.1 µM | CN(C)Cc1nccn1-c1ccc(NC(=O)C(NC(=O)Nc2ccc(Cl)cc2)c2ccccc2F)c(F)c1 (stereo not shown) [Example 58, N-[4-(2-dimethylaminomethyl-imidazol-1-yl)-2-fluorophenyl]-2-(2-fluorophenyl)-2-(4-chlorophenylaminocarbonylamino)-acetamide]
11 | ≤ 0.1 µM | CN1CCN=C1c1ccc(NC(=O)[C@H](CC(=O)OCc2ccccc2)NC(=O)Nc2ccc(Cl)cc2)cc1 [Example 59]
12 | ≥ 0.5 µM | CN1CCN=C1c1ccc(NC(=O)[C@H](CC(=O)O)NC(=O)Nc2ccc(Cl)cc2)cc1 [Example 60, (2S) N-[4-(1-methyl-4,5-dihydro-1H-imidazol-2-yl)phenyl]-2-carboxymethyl-2-(4-chlorophenylaminocarbonylamino)-acetamide]
13 | 0.1 to 0.5 µM | CN1CCN=C1c1ccc(NC(=O)[C@@H](CC(=O)OCc2ccccc2)NC(=O)Nc2ccc(Cl)cc2)cc1 [Example 61, (2R) N-[4-(1-methyl-4,5-dihydro-1H-imidazol-2-yl)phenyl]-2-benzyloxycarbonylmethyl-2-(4-chlorophenylaminocarbonylamino)-acetamide]

The next lines start with the compound.

Row | SMILES | IC50
14 | C#CCN(C)C(=N)c1ccc(NC(=O)C(NC(=O)Nc2ccc(Cl)cc2)c2ccccc2)cc1 (stereo not shown) [Example 27, N-[4-(N-methyl-N-propargylaminoimino)phenyl]-2-phenyl-2-(4-chlorophenylaminocarbonylamino)-acetamide] | ≤ 0.1 µM
15 | N=C(c1ccc(NC(=O)C(NC(=O)Nc2ccc(Cl)cc2)c2ccccc2)cc1)N1CCC1 (stereo not shown) [Example 28] | ≤ 0.1 µM
16 | N=C(c1ccc(NC(=O)C(NC(=O)Nc2ccc(Cl)cc2)c2ccccc2)cc1)N1CCCC1 (stereo not shown) [Example 29] | ≤ 0.1 µM
17 | CN1CCN=C1c1ccc(NC(=O)C(NC(=O)Nc2ccc(Br)cc2)c2cccs2)cc1 (stereo not shown) [Example 30, N-[4-(1-methyl-4,5-dihydro-1H-imidazol-2-yl)phenyl]-2-(2-thienyl)-2-(4-bromophenylaminocarbonylamino)-acetamide] | ≤ 0.1 µM
18 | CN1CCN=C1c1ccc(NC(=O)[C@@H](NC(=O)Nc2ccc(Cl)cc2)c2ccccc2)cc1 [Example 31, (2S) N-[4-(1-methyl-4,5-dihydro-1H-imidazol-2-yl)phenyl]-2-phenyl-2-(4-chlorophenylaminocarbonylamino)-acetamide] | ≤ 0.1 µM
19 | CN1CCN=C1c1ccc(NC(=O)[C@H](NC(=O)Nc2ccc(Cl)cc2)c2ccccc2)cc1 [Example 32, (2R) N-[4-(1-methyl-4,5-dihydro-1H-imidazol-2-yl)phenyl]-2-phenyl-2-(4-chlorophenylaminocarbonylamino)-acetamide] | ≤ 0.1 µM
20 | CN(C)C(=N)c1ccc(NC(=O)C(NC(=O)Nc2ccc(Cl)cc2)c2ccccc2)c(F)c1 (stereo not shown) [Example 33, N-[4-(dimethylaminoimino)-2-fluorophenyl]-2-phenyl-2-(4-chlorophenylaminocarbonylamino)-acetamide] | ≤ 0.1 µM
21 | CCN(C)C(=N)c1ccc(NC(=O)C(NC(=O)Nc2ccc(Cl)cc2)c2ccccc2)c(F)c1 (stereo not shown) [Example 34, N-[4-(N-methyl-N-ethylaminoimino)-2-fluorophenyl]-2-phenyl-2-(4-chlorophenylaminocarbonylamino)-acetamide] | ≤ 0.1 µM
22 | C=CCN(C)C(=N)c1ccc(NC(=O)C(NC(=O)Nc2ccc(Cl)cc2)c2ccccc2)c(F)c1 (stereo not shown) [Example 35, N-[4-(N-methyl-N-allylaminoimino)-2-fluorophenyl]-2-phenyl-2-(4-chlorophenylaminocarbonylamino)-acetamide] | ≤ 0.1 µM
23 | C#CCN(C)C(=N)c1ccc(NC(=O)C(NC(=O)Nc2ccc(Cl)cc2)c2ccccc2)c(F)c1 (stereo not shown) [Example 36, N-[4-(N-methyl-N-propargylaminoimino)-2-fluorophenyl]-2-phenyl-2-(4-chlorophenylaminocarbonylamino)-acetamide] | ≤ 0.1 µM
24 | CNC(=N)c1ccc(NC(=O)C(NC(=O)Nc2ccc(Cl)cc2)c2ccccc2)c(F)c1 (stereo not shown) [Example 37, N-(4-methylaminoimino-2-fluorophenyl)-2-phenyl-2-(4-chlorophenylamino-carbonylamino)-acetamide] | ≤ 0.1 µM
25 | N=C(c1ccc(NC(=O)C(NC(=O)Nc2ccc(Cl)cc2)c2ccccc2)c(F)c1)N1CCCC1 (stereo not shown) [Example 38, N-[4-(pyrrolidin-1-ylimino)-2-fluorophenyl]-2-phenyl-2-(4-chlorophenylaminocarbonylamino)-acetamide] | ≤ 0.1 µM
26 | N=C(c1ccc(NC(=O)C(NC(=O)Nc2ccc(Cl)cc2)c2ccccc2)c(F)c1)N1CCC1 (stereo not shown) [Example 39] | ≤ 0.1 µM
27 | CN1CCN=C1c1ccc(NC(=O)C(NC(=O)Nc2ccc(Br)cc2)c2ccccc2F)cc1 (stereo not shown) [Example 40, N-[4-(1-methyl-4,5-dihydro-1H-imidazol-2-yl)phenyl]-2-(2-fluorophenyl)-2-(4-bromophenylaminocarbonylamino)-acetamide] | ≤ 0.1 µM
28 | N=C(c1ccc(NC(=O)C(NC(=O)Nc2ccc(Cl)cc2)c2ccccc2F)cc1)N1CCCC1 (stereo not shown) [Example 41] | ≤ 0.1 µM
29 | N=C(c1ccc(NC(=O)C(NC(=O)Nc2ccc(Cl)cc2)c2ccccc2F)cc1)N1CCCCC1 (stereo not shown) [Example 42] | ≤ 0.1 µM
30 | CN(C)C(=N)c1ccc(NC(=O)C(NC(=O)Nc2ccc(Cl)cc2)c2ccccc2F)cc1 (stereo not shown) [Example 43, N-[4-(dimethylaminoimino)phenyl]-2-(2-fluorophenyl)-2-(4-chlorophenylaminocarbonylamino)-acetamide] | ≤ 0.1 µM
31 | N=C(c1ccc(NC(=O)C(NC(=O)Nc2ccc(Br)cc2)c2ccccc2F)cc1)N1CCCC1 (stereo not shown) [Example 44] | ≤ 0.1 µM
32 | N=C(c1ccc(NC(=O)C(NC(=O)Nc2ccc(Br)cc2)c2ccccc2F)cc1)N1CCCCC1 (stereo not shown) [Example 45, N-[4-(piperidin-1-ylimino)phenyl]-2-(2-fluorophenyl)-2-(4-bromophenylaminocarbonylamino)-acetamide] | ≤ 0.1 µM
33 | N=C(c1ccc(NC(=O)C(NC(=O)Nc2ccc(Cl)cc2)c2ccccc2F)c(F)c1)N1CCCC1 (stereo not shown) [Example 47] | ≤ 0.1 µM
34 | CN(C)NC(=N)c1ccc(NC(=O)C(NC(=O)Nc2ccc(Cl)cc2)c2ccccc2F)c(F)c1 (stereo not shown) [Example 48, N-[4-(2,2-dimethylhydrazinoimino)-2-fluorophenyl]-2-(2-fluorophenyl)-2-(4-chlorophenylaminocarbonylamino)-acetamide] | 0.1 to 0.5 µM
